US20080200531A1, “CDKI pathway inhibitors as inhibitors of tumor cell growth” (priority 2006, published 2008)
Like-named read-outs stand apart in the source and are kept apart here.

Legend:
[1] = test system: p21-responsive genes (IPTG-induced p21); assay: Affymetrix U133 2.0 Plus microarray analysis of p21-responsive genes in HT1080 p21-9; type: cell-based, human; conditions: for fold induction at 20 µM: Homo sapiens, HT-1080, 72 h
Experimental: HT1080 p21-9 cell line, which carries IPTG-inducible CDKI p21, was either untreated, or treated for 72 hrs with 100 μM IPTG (which induces p21), or with CDKI pathway inhibitors SNX9-1 (20 μM, SNX9 family) or SNX14 (80 μM, unrelated to SNX9) alone or in combination with IPTG. RNA was extracted after each treatment and used for hybridization with Affymetrix U133 2.0 Plus microarrays, containing 56,000 probe sets corresponding to essentially all the human genes. The microarray data were analyzed using Gene Spring software (Agilent). […] The first group (p21-induced genes, top panels) represents 1124 probe sets corresponding to genes that were induced at least 2-fold upon treatment with p21-inducing IPTG. The second group (p21-inhibited genes, bottom panels) represents 435 probe sets corresponding to genes that were inhibited at least 4-fold upon IPTG treatment. […] The left panels show the response of the two groups of genes to IPTG (p21 induction) in the absence of SNX9-class compounds, with the first group induced and the second group inhibited by IPTG. The middle panels show the response of the same genes to IPTG in the presence of SNX9-1 or SNX14 (added with or without IPTG). Both the induction and the inhibition of gene expression by IPTG appear much reduced in the presence of SNX9-1 or SNX14, as expected from their activity as CDKI pathway inhibitors.

[2] = test system: p21-induced transcription from the NK4 promoter; assay: NK4 promoter-firefly luciferase reporter in HT1080 p21-9 cells; type: cell-based, human; conditions: 20 μM SNX-9
Experimental: In this experiment, HT1080 p21-9 cells that express firefly luciferase from a CDKI-responsive promoter of cellular NK4 gene were cultured with IPTG for two days, which is sufficient for near-maximal induction of NK4 (Poole et al., supra).

[3] = test system: CDKI-responsive endogenous genes induced by p16; assay: Q-PCR of CDKI-responsive endogenous genes, HT1080 cells with IPTG-inducible p16; type: cell-based, human; conditions: 10 μM SNX9; normalized to β-actin
Experimental: For this purpose, we developed real-time RT-PCR (Q-PCR) assays for measuring RNA levels of eleven CDKI-responsive genes. This assay uses a 96-well TurboCapture RNA extraction kit (Qiagen), in which oligo(dT) is covalently bound to the surface of the wells to allow mRNA isolation from cell lysate and cDNA synthesis in the same wells. 5 units/μl of SuperScript III reverse transcriptase (Invitrogen) was added to the wells for 1 hr for cDNA synthesis at 50° C., and 2 μl of the resulting cDNA was then used for Q-PCR analysis using SYBR Green PCR Master Mix (ABI) with ABI 7900HT Q-PCR machine.
This effect argues that the molecular target of these compounds is not a specific CDKI but rather a common downstream mediator of the transcription-inducing effects of different CDKI.

[4] = test system: NFκB p50 and p65 subunits; assay: TransAM NFκB p65 and p50 Chemi Transcription Factor Assay (oligonucleotide binding); type: cell-based; conditions: TNFα-induced or basal
Source text: We also tested if these compounds could act as the inhibitors of NFκB, by measuring cellular levels of p50 or p65 subunits binding oligonucleotides containing NFκB consensus binding site, using ACTIVE MOTIF TransAM™ NFκB p65 Chemi and NFκB p50 Chemi Transcription Factor Assay Kits.

[5] = Plasma level of SNX9 one hour after IV injection, HPLC analysis; type: in vivo; conditions: NCr nude, mouse, one hour after IV injection of 70 mg/kg, two mice
Experimental: In order to determine the ability of SNX9 to remain in the blood of mice at detectable levels, we analyzed its plasma level one hour after IV injection. Two control mice were uninjected, and two mice were injected IV with 70 mg/kg SNX9 (dissolved in PBS). After one hour, the mice were euthanized and the blood collected by cardiac puncture. After plasma was prepared from the whole blood it was frozen and stored at −70° C. The frozen plasma was thawed and 100 μl was cleared of plasma protein by precipitation with 4 volumes of 100% ethanol at −20° C. for one hour. Under these conditions, SNX9 is recovered quantitatively in the ethanol soluble fraction with a minimum of plasma contamination.
The first assay was HPLC analysis. For this assay, the ethanol soluble fraction was dried under vacuum and re-dissolved in 100 μl 30% acetonitrile 0.1% trifluoroacetic acid (TFA). 4 μl of the ethanol extracted SNX9 was applied to a C18 HPLC column and eluted isocratically using a buffer of 30% acetonitrile 0.1% TFA at a flow rate of 0.3 ml/min. The elution of SNX9 was monitored at its absorption maximum wavelength of 280 nm. […]
The second assay was a biological test for cytotoxicity. […] After 72 hours the growth inhibition was measured by Hoechst staining of the cell lysate in each well of the 96 well tissue culture plate, prepared as previously described.

[6] = test system: HMEC primary cultures, MCF-7 and MDA231; assay: 3-day growth inhibition assay (Hoechst 33342), normal mammary epithelial cells vs breast carcinoma lines; conditions: 3-day assay; HMEC vs MCF-7 and MDA231
Experimental: The assays were carried out in 96-well plates, in triplicates; the plated cell numbers for each cell line were determined in preliminary experiments to assure exponential growth over the 3-day period of the assay. The cell numbers were measured by staining DNA of attached cells with Hoechst 33342, and the results for each dose were expressed as the decrease in cell number relative to untreated cells. For some of the tumor/normal cell line combinations, the assays were repeated using CellTiter-Glo viability assay (Promega), with the same results.

[7] = SNX9-1 20 μM, SNX14 80 μM, 72 hrs

| SMILES | fold induction at 20 µM ([1]; read-out: Fold induction by IPTG, CD44, probe 212063_at, SNX14 80 μM, SNX9-1 20 μM, control 1.21) | fold induction at 20 µM ([1]; read-out: Fold induction by IPTG, CLTB, probe 211043_s_at, SNX14 80 μM, SNX9-1 20 μM, control 1.32) | fold induction at 20 µM ([1]; read-out: Fold induction by IPTG, FLJ13111, probe 218148_at, SNX14 80 μM, SNX9-1 20 μM, control 1.27) | fold induction at 20 µM ([1]; read-out: Fold induction by IPTG, KRT8, probe 209008_x_at, SNX14 80 μM, SNX9-1 20 μM, control 1.97) | fold induction at 20 µM ([1]; read-out: Fold induction by IPTG, LGALS3, probe 208949_s_at, SNX14 80 μM, SNX9-1 20 μM, control 3.74) | fold induction at 20 µM ([1]; read-out: Fold induction by IPTG, NK4, probe 203828_s_at, SNX14 80 μM, SNX9-1 20 μM, control 7.22) | fold induction at 20 µM ([1]; read-out: Fold induction by IPTG, SLC22A18, probe 204981_at, SNX14 80 μM, SNX9-1 20 μM, control 2.46) | fold induction at 20 µM ([1]; read-out: Fold induction by IPTG, SPTBN1, probe 212071_s_at, SNX14 80 μM, SNX9-1 20 μM, control 1.24) | fold induction at 20 µM ([1]; read-out: Fold induction by IPTG, SPTBN1, probe 226765_at, SNX14 80 μM, SNX9-1 20 μM, control 1.21) | induction and inhibition of gene expression by IPTG in the presence of compound (1124 p21-induced, 435 p21-inhibited probe sets) [1, 7] | induction by p21 of genes that are markers of cancer intractability [1, 7] | response of p21-induced and p21-inhibited genes to compound in the absence of IPTG ([1]; SNX9-1 20 μM, SNX14 80 μM, 72 hrs, weaker than IPTG) | induction of NK4-luciferase by p21, compound added after two days of IPTG treatment (reversal) [2] | induction of NK4-luciferase by p21, compound added simultaneously with IPTG [2] | induction of CDKI-responsive endogenous genes by p16 (ratio of RNA levels with and without IPTG) [3] | NFκB activity (p50 or p65 binding to NFκB consensus oligonucleotide) [4] | concentration at 1 h [5] | tumor selectivity of growth inhibition, normal vs transformed mammary cells [6] |
| --- | --- | --- | --- | --- | --- | --- | --- | --- | --- | --- | --- | --- | --- | --- | --- | --- | --- | --- |
| NCCc1c[nH]c2c(Cl)cc(Cl)cc12 [SNX9-1] | 1.03 | 0.95 | 0.98 | 0.81 | 1.33 | 1.6 | 1.34 | 1.24 | 1.09 | much reduced | inhibited their induction | most of p21-induced genes are induced by SNX9-1 and SNX14 and most of p21-inhibited genes are inhibited |  |  |  |  |  |  |
| Cc1[nH]c2c(Cl)cccc2c1CCN [SNX9] |  |  |  |  |  |  |  |  |  |  |  |  | reverses CDKI-induced transcription | decreased the induction of NK4-luciferase by p21 | partially inhibit the induction of all the tested genes | no significant effect | ~250 µM | clear tumor selectivity |
